In paper PMC9322052, “Synthesis and Biological Activity Screening of Newly Synthesized Trimethoxyphenyl-Based Analogues as Potential Anticancer Agents” (Molecules, 2022):

Columns and labels:
[1] = tested on: hepatocellular carcinoma HepG2 cell line; assay: MTT cytotoxicity assay, HepG2; assay type: cell-based, human; conditions: 24 h treatment, mean ± SE
Procedure: All the newly synthesized analogs were evaluated for their in vitro cytotoxicity against the hepatocellular carcinoma HepG2 cell line. Podo was utilized as a reference control in the current study. […] The N-phenyl triazinone derivative 9 was further investigated for its cytotoxic effects against normal liver cell line HL-7702.
MTT colorimetric assay was carried out to investigate the impact of the newly synthesized compounds 2–11 on hepatocellular carcinoma (HepG2) and normal liver cell line (HL-7702) cell lines. See Section 3.3.1 in Supplementary Material.
3.3.1. Cytotoxic activity evaluation
To measure the cytotoxic activity of the synthesized derivatives 2a-11 in hepatocel-lular carcinoma (HepG2) cell line (ATCC Cat No. HB-8065) as well as normal human liver cell line HL-7702 (ATCC Cat. No. 77402), cell viability assay was assessed using MTT assay method. Cells at density of 1 x 104 were seeded in a 96-well plate at 37 °C for 24 h under 5% CO2. After incubation, the cells were treated with different concentrations of the test compounds 2a-11 and incubated for 24 h, then 20 μl of MTT solution at 5 mg/mL was applied and incubated for 4 h at 37 °C. Dimethyl sulphoxide (DMSO) in volume of 100 µl was added to each well to dissolve the purple formazan that had formed. The color inten-sity of the formazan product, which represents the growth condition of the cells, is quan-tified by using an ELISA plate reader (EXL 800, USA) at 570 nm absorbance. The experi-mental conditions were carried out with at least three replicates, and the experiments were repeated at least three times.
3.3.2. Tubulin inhibitions Assay
Compounds 9, 10 and 11 were evaluated for their tubulin inhibitory activity levels according to the manufacturer’s instructions using # abcam Human Beta-tubulin simplestep […]
3.3.3. Cell cycle analysis of compound 9
Cell cycle analysis in HepG2 cells was investigated using fluorescent Annexin V-FITC/ PI detection kit (BioVision EZCellTM Cell Cycle Analysis Kit Catalog #K920) by flow cytometry assay. HepG2 cells at a density of 2 × 10^5 per well were harvested and washed twice in PBS. After that, the cells were incubated at 37 °C and 5% CO2. […] Afterward, medium was stained with DNA flu-orochrome PI for 15 min at 37 °C. The samples were immediately analyzed using Facs Calibur flow cytometer (Becton and Dickinson, Heidelberg, Germany).
3.3.4. Apoptosis assay for compound 9
Apoptosis in HepG2 cells was investigated using fluorescent Annexin V-FITC/ PI de-tection kit (BioVision Annexin V-FITC Apoptosis Detection Kit, Catalog #: K101) by flow cy-tometry assay. HepG2 cells at a density of 2 × 10^5 per well were treated with compound 9 at its IC50 (μM) for 48 h, then the cells were harvested and stained with Annexin V-FITC/ PI dye for 15 min in the dark at 37 °C. The samples were immediately analyzed using FACS Calibur flow cytometer (Becton and Dickinson, Heidelberg, Germany).
3.3.5. Measurement of mitochondrial membrane potential (MMP) for compound 9 MMP was measured by FACS analysis using abcam ab113852TMRE Mitochondrial Membrane Potential Assay Kit with DiOC2(3) staining using MitoProbe™ DiOC2(3) Assay Kit for Flow Cytometry (M34150). After treatment with compound 9 at its IC50 concentra-tion, cells were stained with DiOC2(3) dye for 30 min in the incubator, then harvested and washed with PBS. DiOC2(3)-stained cells were represented with Annexin binding buffer and incubated at 37 °C for 15 min. The samples were immediately analyzed using cell […]
3.3.6. Effect on p53, Bax and Bcl-2 p53, Bax and Bcl2 enzyme activities in HepG2 cells were detected in the presence of com-pound 9 at its IC50 concentration (μM). The levels of the tumor suppressor gene p53, apoptotic markers Bax as well as the anti-apoptotic marker Bcl-2 were assessed using p53 ELISA kit, Human Bax ELISA kit and Bcl-2 Elisa kit. […]

β-tubulin = assay: Tubulin polymerization inhibition (beta-tubulin ELISA in HepG2 cells); assay type: cell-based, human; conditions: HepG2 cells, each compound at its IC50 concentration (9 1.38, 10 2.52, 11 3.21, podo 2.08 μM), ELISA
Procedure: The selected candidates were tested at a concentration equal to their IC50 concentration dose value. […] See Section 3.3.2 in Supplementary Material. […] page 18: 3.3. Biological studies 3.3.1. Cytotoxic activity evaluation To measure the cytotoxic activity of the synthesized derivatives 2a-11 in hepatocel- lular carcinoma (HepG2) cell line (ATCC Cat No. HB-8065) as well as normal human liver cell line HL-7702 (ATCC Cat. No. 77402), cell viability assay was assessed using MTT assay method. Cells at density of 1 x 104 were seeded in a 96-well plate at 37 °C for 24 h under 5% CO2. After incubation, the cells were treated with different concentrations of the test compounds 2a-11 and incubated for 24 h, then 20 μl of MTT solution at 5 mg/mL was […] Dimethyl sulphoxide (DMSO) in volume of 100 μl was added to each well to dissolve the purple formazan that had formed. The color […] of the formazan product, which represents the growth condition of the cells, is quan- […] by using an ELISA plate reader (EXL 800, USA) at 570 nm absorbance. The experi- mental conditions were carried out with at least three replicates, and the experiments were repeated at least three times. 3.3.2. Tubulin inhibitions Assay […] according to the manufacturer's instructions using # abcam Human Beta-tubulin […] ELISA Kit ab245722. 3.3.3. Cell cycle analysis of compound 9 Cell cycle analysis in HepG2 cells was investigated using fluorescent Annexin V- FITC/ PI detection kit (BioVision EZCellTM Cell Cycle Analysis Kit Catalog #K920) by flow cytometry assay. […] twice in PBS. After that, the cells were incubated at 37 °C and 5% CO2. […] Apoptosis assay for compound 9 Apoptosis in HepG2 cells was investigated using fluorescent Annexin V-FITC/ PI de- tection kit (BioVision Annexin V-FITC Apoptosis Detection Kit, Catalog #: K101) by flow cy- tometry assay. […] The samples were immediately analyzed using FACS Calibur flow cytometer (Becton and Dickinson, Heidelberg, Germany). 3.3.5. Measurement of mitochondrial membrane potential (MMP) for compound 9 MMP was measured by FACS analysis using abcam ab113852TMRE Mitochondrial Membrane Potential Assay Kit with DiOC2(3) staining using MitoProbeTM DiOC2(3) Assay Kit for Flow Cytometry (M34150). After treatment with compound 9 at its IC50 concentra- tion, cells were stained with DiOC2(3) dye for 30 min in the incubator, then harvested and washed with PBS. […] The samples were immediately analyzed using cell Quest software. […] Effect on p53, Bax and Bcl-2 p53, Bax and Bcl2 enzyme activities in HepG2 cells were detected in the presence of com- pound 9 at its IC50 concentration (μM). The levels of the tumor suppressor gene p53, apoptotic markers Bax as well as the anti-apoptotic marker Bcl-2 were assessed using p53 ELISA kit, Human Bax ELISA kit and Bcl-2 Elisa kit. […]

Row | SMILES | melting point [°C] | IC50 [1] [µM] | IC50 ([1]; Homo sapiens, HepG2, 24 h) [µM] | β-tubulin polymerization inhibition percentage (β-tubulin) [%]
1 | COc1ccc(C(=O)N/C(=C\c2cc(OC)c(OC)c(OC)c2)C(=O)NCC(=O)O)cc1OC [Compound 3a, (Z)-2-(2-(3,4-Dimethoxybenzamido)-3-(3,4,5-Trimethoxyphenyl)acrylamido)acetic Acid] | 248 to 250 | 8.13 ± 0.54 | < 10 | 
2 | COc1ccc(C(=O)N/C(=C\c2cc(OC)c(OC)c(OC)c2)C(=O)Nc2cccc(C)c2)cc1OC [Compound 4a, (Z)-3,4-Dimethoxy-N-(3-oxo-3-(M-tolylamino)-1-(3,4,5-Trimethoxyphenyl)prop-1-en-2-yl)benzamide] | 248 to 250 |  | 45.5 ± 2.89 | 
3 | COc1ccc(NC(=O)/C(=C/c2cc(OC)c(OC)c(OC)c2)NC(=O)c2ccc(OC)c(OC)c2)cc1 [Compound 4c, (Z)-3,4-Dimethoxy-N-(3-(4-Methoxyphenylamino)-3-oxo-1-(3,4,5-Trimethoxyphenyl)prop-1-en-2-yl)benzamide] | 248 to 250 |  | 23.7 ± 1.37 | 
4 | COc1ccc(C(=O)N/C(=C\c2cc(OC)c(OC)c(OC)c2)C(=O)NNC(=O)c2ccncc2)cc1OC [Compound 6, (Z)-N-(3-(2-Isonicotinoylhydrazinyl)-3-oxo-1-(3,4,5-Trimethoxyphenyl)prop-1-en-2-yl)-3,4-Dimethoxybenzamide] | 248 to 250 | 8.74 ± 0.57 | < 10 | 
5 | COc1ccc(C(=O)N/C(=C\c2cc(OC)c(OC)c(OC)c2)C(=O)Nc2ccc(O)cc2)cc1OC [Compound 4b, (Z)-N-(3-(4-Hydroxyphenylamino)-3-oxo-1-(3,4,5-Trimethoxyphenyl)prop-1-en-2-yl)-3,4-Dimethoxybenzamide] | 248 to 250 | 17.7 ± 1.1 | < 20 | 
6 | COc1ccc(C2=N/C(=C\c3cc(OC)c(OC)c(OC)c3)C(=O)N2c2ccc(O)cc2)cc1OC [Compound 7a, (Z)-2-(3,4-Dimethoxyphenyl)-1-(4-Hydroxyphenyl)-4-(3,4,5-Trimethoxybenzylidene)-1H-Imidazol-5(4H)-one] | 248 to 250 |  |  | 
7 | COc1ccc(C(=O)N/C(=C\c2cc(OC)c(OC)c(OC)c2)C(=O)NNc2ccccc2)cc1OC [Compound 5, (Z)-3,4-Dimethoxy-N-(3-oxo-3-(2-Phenylhydrazinyl)-1-(3,4,5-Trimethoxyphenyl)prop-1-en-2-yl)benzamide] |  | 9.24 ± 0.52 | < 10 | 
8 | COc1ccc(C2=N/C(=C\c3cc(OC)c(OC)c(OC)c3)C(=O)NN2c2nc(-c3ccccc3)cs2)cc1OC [Compound 11, (Z)-3-(3,4-Dimethoxyphenyl)-2-(4-Phenylthiazol-2-yl)-5-(3,4,5-Trimethoxybenzylidene)-1,2-Dihydro-1,2,4-Triazin-6(5H)-one] | 248 to 250 |  | 3.21 ± 0.22 | 69.95
9 | COc1ccc(C2=N/C(=C\c3cc(OC)c(OC)c(OC)c3)C(=O)NN2C(=O)c2ccncc2)cc1OC [Compound 10, (Z)-3-(3,4-Dimethoxyphenyl)-2-Isonicotinoyl-5-(3,4,5-Trimethoxybenzylidene)-1,2-Dihydro-1,2,4-Triazin-6(5H)-one] | 248 to 250 |  | 2.52 ± 0.24 | 80.51
10 | CCOC(=O)/C(=C/c1cc(OC)c(OC)c(OC)c1)NC(=O)c1ccc(OC)c(OC)c1 [Compound 2b, (Z)-Ethyl 2-(3,4-Dimethoxybenzamido)-3-(3,4,5-Trimethoxyphenyl)acrylate] | 248 to 250 | 11.1 ± 0.77 | < 20 | 
11 | COc1ccc(C(=O)N/C(=C\c2cc(OC)c(OC)c(OC)c2)C(=O)NNc2ccccc2)cc1OC (hydrate or solvate) [Compound 5, (Z)-3,4-Dimethoxy-N-(3-oxo-3-(2-Phenylhydrazinyl)-1-(3,4,5-Trimethoxyphenyl)prop-1-en-2-yl)benzamide] | 248 to 250 |  |  | 
12 | COC(=O)/C(=C/c1cc(OC)c(OC)c(OC)c1)NC(=O)c1ccc(OC)c(OC)c1 [Compound 2a, (Z)-Methyl 2-(3,4-Dimethoxybenzamido)-3-(3,4,5-Trimethoxyphenyl)acrylate] | 248 to 250 | 14.4 ± 0.82 | < 20 | 
13 | COc1ccc(N2C(=O)/C(=C/c3cc(OC)c(OC)c(OC)c3)N=C2c2ccc(OC)c(OC)c2)cc1 [Compound 7b, (Z)-2-(3,4-Dimethoxyphenyl)-1-(4-Methoxyphenyl)-4-(3,4,5-Trimethoxybenzylidene)-1H-Imidazol-5(4H)-one] | 248 to 250 | 6.45 ± 0.24 | < 10 | 
14 | COc1ccc(C(=O)N/C(=C\c2cc(OC)c(OC)c(OC)c2)C(=O)NC(C)C(=O)O)cc1OC (stereo not drawn) [Compound 3b, (Z)-2-(2-(3,4-Dimethoxybenzamido)-3-(3,4,5-Trimethoxyphenyl)acrylamido)propanoic Acid] | 248 to 250 | 19.4 ± 1.43 | < 20 | 
15 | COc1ccc(C2=N/C(=C\c3cc(OC)c(OC)c(OC)c3)C(=O)NN2C(N)=S)cc1OC [Compound 8, (Z)-3-(3,4-Dimethoxyphenyl)-6-oxo-5-(3,4,5-Trimethoxybenzylidene)-5,6-Dihydro-1,2,4-Triazine-2(1H)-Carbothioamide] | 248 to 250 |  |  | 
